For orientation: Ki means a dissociation constant, usually derived from enzyme kinetics or from competition with a known ligand.

We go through three substances from paper PMC4567993, “A Novel Trypsin Inhibitor-Like Cysteine-Rich Peptide from the Frog Lepidobatrachus laevis Containing Proteinase-Inhibiting Activity” (Natural Products and Bioprospecting, 2015).

No end group written: not given here.

In experiment [1] the test system is elastase. Also noted: method as in 3 sources, ref [14] = [14]; PMID 23533574; doi:10.1371/journal.pone.0057529; 14. Chen ZY Wang B Hu J Yang WS Cao ZJ Zhuo RX Li W Wu Y PLoS ONE 2013 8 e57529 10.1371/journal.pone.0057529 23533574 PMC3606364 ||| ref [15] = [15]; PMID 16191451; doi:10.1016/j.peptides.2005.07.013; 15. Fogaca AC Almeida IC Eberlin MN Tanaka AS Bulet P Daffre S Peptides 2006 27 667 674 10.1016/j.peptides.2005.07.013 16191451 ||| ref [20] = [20]; PMID 23200835; doi:10.1016/j.bbrc.2012.11.056; 20. Kim BY Lee KS Wan H Zou FM Choi YS Yoon HJ Kwon HW Je YH Jin BR Biochem. Biophys. Res. Commun. 2013 430 144 149 10.1016/j.bbrc.2012.11.056 23200835. Conditions: ref [15]; cited from earlier work.

On the set-up of experiment [2]: method as in PMID 16191451. Conditions: ref [15]; cited from earlier work.
Experiment [3] has as its system chymotrypsin. Further details: method as in 2 sources, one per row (each row's own in cited_ref): ref [15] = [15]; PMID 16191451; doi:10.1016/j.peptides.2005.07.013; 15. Fogaca AC Almeida IC Eberlin MN Tanaka AS Bulet P Daffre S Peptides 2006 27 667 674 10.1016/j.peptides.2005.07.013 16191451 ||| ref [20] = [20]; PMID 23200835; doi:10.1016/j.bbrc.2012.11.056; 20. Kim BY Lee KS Wan H Zou FM Choi YS Yoon HJ Kwon HW Je YH Jin BR Biochem. Biophys. Res. Commun. 2013 430 144 149 10.1016/j.bbrc.2012.11.056 23200835. As to conditions: ref [15]; cited from earlier work.

The test system of experiment [4] is elastase. The experiment in a line: Elastase inhibition, chromogenic substrate. The class given is biochemical. As to conditions: elastase 23 nM; 0.05 M Tris-HCl pH 7.8, 37 °C; LL-TIL 0.0 to 20 μM; pre-incubated 10 min; data not shown. From the text: (§1) Presently, the biological role of proteinase inhibitory peptides in amphibian skins is explained mainly by two hypotheses. One is that several enzymes are involved in peptide precursor processing or peptide degradation in the skin and proteinase inhibitors negatively modulate the activity of these proteases to avoid premature degradation or release of skin peptides. The other hypothesis is that the peptides are surface anti-infective agent similar to AMPs because they inhibit extracellular proteases produced by invading bacteria. […] Further work is needed to address this issue.
(§2) Effects of the tested samples on the hydrolysis of synthetic chromogenic substrates by different serine proteases were assayed in 0.05 M Tris–HCl, pH 7.8 (for trypsin, Sigma T4665; thrombin, Sigma T4393; chymotrypsin, Sigma C4129; elastase, Sigma E1250; plasmin, Sigma P1867) or pH 8.45 (for substilisin, Sigma P5380) buffer at 37 °C. The protease (trypsin, 10 nM; thrombin, 10 nM; chymotrypsin, 21 nM; elastase, 23 nM and substilisin, 30 nM) and different amounts of LL-TIL (final concentrations ranging from 0.0 to 20 μM) were pre-incubated for 10 min at 37 °C. […] The formation of p-nitroaniline was monitored continuously at 405 for 2 min. For chymotrypsin, the reaction was monitored at 253 nm. The inhibition constant Ki was determined according to the reported method.

Experiment [5] deals with plasmin. Briefly: Plasmin inhibition, chromogenic substrate. The class given is biochemical. Conditions: 0.05 M Tris-HCl pH 7.8, 37 °C; LL-TIL 0.0 to 20 μM; pre-incubated 10 min; data not shown.
Excerpt: as §1, §2

Experiment [6] deals with Bacillus subtilis (ATCC 6633). The experiment in a line: Antimicrobial assay (MIC). The class given is cell-based. As to conditions: recombinant LL-TIL, data not shown. On the procedure: (§3) For antimicrobial assays, several microorganisms including Gram positive bacterium S. aureus (ATCC 25923), […] and fungus C. albicans (ATCC 20032) were obtained from Kunming Medical College. They were first grown in LB (Luria–Bertani) broth or yeast extract–peptone–dextrose broth as our previous methods. MIC (minimal inhibitory concentration) of tested sample against these microorganisms was determined as previous reports. The MIC is defined as the lowest concentration of tested sample to inhibit microorganism growth.

Experiment [7] relates to Escherichia coli (ATCC 25922). The experiment in a line: Antimicrobial assay (MIC). The class given is cell-based. Conditions: recombinant LL-TIL, ATCC 25922, Gram-negative, data not shown. The method, then: as §3
Experiment [8] has as its system Candida albicans (ATCC 20032). The experiment in a line: Antimicrobial assay (MIC). The class given is cell-based. Conditions: recombinant LL-TIL, ATCC 20032, fungus, data not shown. On the procedure: as §3
In experiment [9] the test system is Staphylococcus aureus (ATCC 25923). The experiment in a line: Antimicrobial assay (MIC). Conditions: recombinant LL-TIL, ATCC 25923, Gram positive, data not shown. The class given is cell-based. On the procedure: as §3
For experiment [10], the system named is thrombin. The experiment in a line: Thrombin inhibition, chromogenic substrate. The class given is biochemical. As to conditions: thrombin 10 nM; 0.05 M Tris-HCl pH 7.8, 37 °C; LL-TIL 0.0 to 20 μM; pre-incubated 10 min; data not shown.
Excerpt: as §1, §2

The test system of experiment [11] is microorganisms. The experiment in a line: Antimicrobial assay, overall statement. The class given is cell-based. As to conditions: recombinant LL-TIL; S. aureus, E. coli, B. subtilis, C. albicans tested. The method, then:
as §3

Experiment [12] concerns substilisin. Briefly: Substilisin inhibition, chromogenic substrate. The class given is biochemical. As to conditions: substilisin 30 nM; pH 8.45, 37 °C; LL-TIL 0.0 to 20 μM; pre-incubated 10 min; data not shown.
Excerpt: as §1, §2

The subject of experiment [13] is chymotrypsin. The experiment in a line: Chymotrypsin inhibition, chromogenic substrate. The class given is biochemical. Conditions: chymotrypsin 21 nM; 0.05 M Tris-HCl pH 7.8, 37 °C; monitored at 253 nm; LL-TIL 0.0 to 20 μM; pre-incubated 10 min; data not shown.
Excerpt: as §1, §2

Experiment [14] has as its system trypsin. Briefly: Trypsin inhibition, chromogenic substrate (serine protease inhibitory testing). The class given is biochemical. As to conditions: for Reciprocal reaction velocity of trypsin, 1/V av / Reaction velocity of trypsin, V av: pH 7.8, 37 °C, means of three duplicate experiments. The method, then: as §2
Experiment [15] concerns the target trypsin (Sigma T4665). Briefly: enzyme inhibition kinetics (chromogenic substrate, Dixon plot); trypsin 10 nM pre-incubated with LL-TIL for 10 min at 37 °C in 0.05 M Tris-HCl, pH 7.8; reaction started with substrate B-3133; p-nitroaniline followed at 405 for 2 min; Ki by Dixon plot from velocities at [S] = 0.2 and 0.4 mM.

For the substance “Ixodidin: from hemocytes of the cattle tick”, the inhibition of elastase result in [1] was “able to inhibit”. Moreover, the antimicrobial activity result in experiment [2] is “weak antimicrobial activities”. The inhibition of chymotrypsin result in experiment [3] is “able to inhibit”.

On to “IRCPKDKIYKFCGSPCPPSCKDLTPNCIAVCKKGCFCRDGTVDNNHGKCVKKENC (disulfide (positions not given here)) [LL-TIL]”, for which the “inhibition of hydrolysis of chromogenic substrate by elastase” value in [4] is given as “did not inhibit”. Besides, in experiment [5], the “inhibition of hydrolysis of chromogenic substrate by plasmin” value was “did not inhibit”. Besides, the “antimicrobial ability against B. subtilis” value in [6] was “no antimicrobial abilities”. The “antimicrobial ability against E. coli” value in [7] is given as “no antimicrobial abilities”. For the same substance, the “antimicrobial ability against C. albicans” value in [8] is listed as “no antimicrobial abilities”. The “antimicrobial ability against S. aureus” value in [9] is on record as “no antimicrobial abilities”. Besides, the “inhibition of hydrolysis of chromogenic substrate by thrombin” value in experiment [10] is “did not inhibit”. In addition, the “antimicrobial activity (overall)” value in experiment [11] was “no antimicrobial activity”. Moreover, in experiment [12], the “inhibition of hydrolysis of chromogenic substrate by substilisin” value is recorded as “did not inhibit”. Besides, in experiment [13], the “inhibition of hydrolysis of chromogenic substrate by chymotrypsin” value is given as “did not inhibit”. In experiment [14] (0.05 M Tris-HCl pH 7.8, 37 °C, trypsin 10 nM, LL-TIL 0.0 to 20 μM), the “inhibition of trypsin (in words)” value is reported as “inhibited the activity of trypsin”. In addition, the “Reciprocal reaction velocity of trypsin, 1/V av” value was 5.2826 in experiment [14] ([I] = 12.987 μM, [S] = 0.2 mM, 1/V av at [I] 0: 3.7864); 3.8700 in experiment [14] ([I] = 12.987 μM, [S] = 0.4 mM, 1/V av at [I] 0: 2.7352); 7.3116 in experiment [14] ([I] = 25.974 μM, [S] = 0.2 mM, 1/V av at [I] 0: 3.7864); 4.8481 in experiment [14] ([I] = 25.974 μM, [S] = 0.4 mM, 1/V av at [I] 0: 2.7352). The “Reaction velocity of trypsin, V av” value in experiment [14] ([I] = 12.987 μM, [S] = 0.2 mM, V av at [I] 0: 0.2641) was determined as 0.1893; in experiment [14] ([I] = 12.987 μM, [S] = 0.4 mM, V av at [I] 0: 0.3656) it was 0.2584; in experiment [14] ([I] = 25.974 μM, [S] = 0.2 mM, V av at [I] 0: 0.2641), 0.1368; in experiment [14] ([I] = 25.974 μM, [S] = 0.4 mM, V av at [I] 0: 0.3656), 0.2063. The Ki in experiment [14] (recombinant LL-TIL, trypsin 10 nM, 0.05 M Tris-HCl pH 7.8, 37 °C, pre-incubated 10 min, chromogenic substrate B-3133, p-nitroaniline at 405 for 2 min, Dixon plot, [S] 0.2 and 0.4 mM) is 16.5 µM.

In turn, “LL-TIL (trypsin inhibitor-like cysteine-rich peptide from Lepidobatrachus laevis), recombinant mature peptide” showed a Ki in experiment [15] of 16.5 µM.
